Data on ten compounds can be found in patent publication US4375513A, “Biologically pure culture of Actinoplanes missouriensis” (Eli Lilly and Company, priority 1981, dated 1983).

The structures appear in SMILES notation. Where a name gives a salt, the structure may show the parent alone.

Assay [1] has as its system Actinoplanes Strain ATCC 31682. Description: antibiotic sensitivity of Actinoplanes strain ATCC 31682. Type of assay: cell-based, Actinoplanes missouriensis. How it is done:
(§1) The methods used for the taxonomic studies of strains ATCC 31680, ATCC 31682, and ATCC 31683 are well known to those skilled in the art and in large part are methods recommended for the International Streptomyces Project (ISP), described by Shirling and Gottlieb, 1966, Intern. J. of Systematic Bacteriol. 16(3):313-340. Enzyme assays were carried out according to the methods of Blazevic and Ederer, 1975, Principles of Biochemical Tests in Diagnostic Microbiology, John Wiley and Sons. Inc., New York, and color names, abbreviations, and numbers were assigned using the ISCC-NBS method of Kelly and Judd, 1976, The ISCC-NBS Centroid Color Charts Standard Sample No. 2106, U.S. Dept. of Commerce, National Bureau of Standards, Washington D.C. Lysozyme resistance and the decomposition of casein, esculin, hypoxanthine, tyrosine, and xanthine were measured using the procedure of Berg, 1973, Appl. Microbiol. 25:665-681. Carbon utilization studies were also completed and are stored as follows: […]

For assay [2], the system named is Actinoplanes Strain ATCC 31683. Nature of the assay: antibiotic sensitivity of Actinoplanes strain ATCC 31683. In kind it is cell-based, Actinoplanes missouriensis. How it is done:
as §1

The subject of assay [3] is Actinoplanes Strain ATCC 31680. Description: antibiotic sensitivity of Actinoplanes strain ATCC 31680. Type of assay: cell-based, Actinoplanes missouriensis. As to the method: as §1
Assay [4] can be described thus: bioautography of aglycone formation during hydrolysis. In kind it is cell-based. Conditions: during hydrolysis of A-4696 complex and individual factors. The text has this:
An additional factor, designated as E1, can also be isolated from the antibiotic A-4696 complex and may represent a degradation product. The chemical, physical, and biological properties of the factors indicate that they are new antibiotics and, except possibly for factor E1, that they are composed of the same peptide core (aglycone) and amino sugar, and varying amounts of glucose, mannose, and rhamnose. […] It is possible that the site of antimicrobial activity of the A-4696 complex and individual factors resides in the peptide pseudo-aglycone, with the factors being substantially differentiated by differences in their neutral sugar composition. The attached sugars may function chiefly to modulate solubility and other important pharmacodynamic parameters.

Consider `CC(=O)OCC1=C(C(=O)O)N2C(=O)[C@@H](NC(=O)Cc3cccs3)[C@H]2SC1` [Cephalothin (sodium)], for which the Antibiotic sensitivity result in assay [1] (30 μg.), in assay [2] (30 μg.) and in assay [3] (30 μg.) was “Sensitive” in each case.

Consider `O=C(N[C@H](CO)[C@H](O)c1ccc([N+](=O)[O-])cc1)C(Cl)Cl` [Chloromycetin], for which the Antibiotic sensitivity entry in assay [1] (30 μg.), in assay [2] (30 μg.) and in assay [3] (30 μg.) was “Sensitive” each time.

On to `CCC(=O)O[C@H]1[C@H](O[C@@H]2[C@@H](C)[C@H](O[C@H]3C[C@@](C)(OC)[C@@H](O)[C@H](C)O3)[C@@H](C)C(=O)O[C@H](CC)[C@@](C)(O)[C@H](O)[C@@H](C)C(=O)[C@H](C)C[C@@]2(C)O)O[C@H](C)C[C@@H]1N(C)C` [Erythromycin (estolate)], for which the Antibiotic sensitivity entry in assay [1] (15 μg.), in assay [2] (15 μg.) and in assay [3] (15 μg.) was “Sensitive” each time.

On to `CO[C@@H]1[C@@H](OC(N)=O)[C@@H](O)[C@H](Oc2ccc3c(O)c(NC(=O)c4ccc(O)c(CC=C(C)C)c4)c(=O)oc3c2C)OC1(C)C` [Novobiocin], for which the Antibiotic sensitivity result in assay [1] (30 μg.), in assay [2] (30 μg.) and in assay [3] (30 μg.) was “Sensitive” throughout.

Regarding `CC1(C)S[C@@H]2[C@H](NC(=O)Cc3ccccc3)C(=O)N2[C@H]1C(=O)O` [Penicillin (G)], the Antibiotic sensitivity entry in assay [1] (10 units), in assay [2] (10 units) and in assay [3] (10 units) was “Sensitive” in each case.

On to `CO[C@H]1/C=C/O[C@@]2(C)Oc3c(C)c(O)c4c(O)c(c(/C=N/N5CCN(C)CC5)c(O)c4c3C2=O)NC(=O)/C(C)=C\C=C\[C@H](C)[C@H](O)[C@@H](C)[C@@H](O)[C@@H](C)[C@H](OC(C)=O)[C@@H]1C` [Rifampin], for which the Antibiotic sensitivity entry in assay [1] (5 μg.), in assay [2] (5 μg.) and in assay [3] (5 μg.) was “Sensitive” in each case.

Regarding `[H]/N=C(/N)N[C@H]1[C@H](O)[C@@H](O)[C@H](O[C@@H]2O[C@@H](C)[C@](O)(C=O)[C@H]2O[C@@H]2O[C@@H](CO)[C@H](O)[C@@H](O)[C@@H]2NC)[C@@H](N/C(N)=N\[H])[C@@H]1O` [Streptomycin], the Antibiotic sensitivity result in assay [1] (10 μg.), in assay [2] (10 μg.) and in assay [3] (10 μg.) was “Sensitive” throughout.

Turning to `CN(C)C1C(=O)C(C(N)=O)=C(O)C2(O)C(=O)C3=C(O)c4c(O)cccc4C(C)(O)C3CC12` (stereo not shown) [Tetracycline], the Antibiotic sensitivity entry in assay [1] (30 μg.), in assay [2] (30 μg.) and in assay [3] (30 μg.) was “Sensitive” throughout.

Turning to `CN[C@H](CC(C)C)C(=O)N[C@H]1C(=O)N[C@@H](CC(N)=O)C(=O)N[C@H]2C(=O)N[C@H]3C(=O)N[C@H](C(=O)N[C@H](C(=O)O)c4cc(O)cc(O)c4-c4cc3ccc4O)[C@H](O)c3ccc(c(Cl)c3)Oc3cc2cc(c3O[C@@H]2O[C@H](CO)[C@@H](O)[C@H](O)[C@H]2O[C@H]2C[C@](C)(N)[C@H](O)[C@H](C)O2)Oc2ccc(cc2Cl)[C@H]1O` [Vancomycin HCl], the Antibiotic sensitivity entry in assay [1] (30 μg.), in assay [2] (30 μg.) and in assay [3] (30 μg.) was “Sensitive” in each case.

As for `COC(=O)C1NC(=O)C2NC(=O)C(NC(=O)C3NC(=O)C4NC(=O)C(Cc5ccc(cc5)Oc5cc3cc(c5O)Oc3ccc(cc3Cl)C2OC2CC(N)C(O)C(C)O2)NC(=O)C(N)c2ccc(O)c(c2)Oc2cc4cc(O)c2C)c2ccc(O)c(c2)-c2c(O)cc(O)cc21` (stereo not shown) [pseudo-aglycone], the “antimicrobial activity (bioautography)” value in assay [4] is listed as “antimicrobially active”.
